In test [1] the target is T1, M-phase inducer phosphatase 2 (Homo sapiens, UniProt P30305).
T1 sequence (P30305 whole entry): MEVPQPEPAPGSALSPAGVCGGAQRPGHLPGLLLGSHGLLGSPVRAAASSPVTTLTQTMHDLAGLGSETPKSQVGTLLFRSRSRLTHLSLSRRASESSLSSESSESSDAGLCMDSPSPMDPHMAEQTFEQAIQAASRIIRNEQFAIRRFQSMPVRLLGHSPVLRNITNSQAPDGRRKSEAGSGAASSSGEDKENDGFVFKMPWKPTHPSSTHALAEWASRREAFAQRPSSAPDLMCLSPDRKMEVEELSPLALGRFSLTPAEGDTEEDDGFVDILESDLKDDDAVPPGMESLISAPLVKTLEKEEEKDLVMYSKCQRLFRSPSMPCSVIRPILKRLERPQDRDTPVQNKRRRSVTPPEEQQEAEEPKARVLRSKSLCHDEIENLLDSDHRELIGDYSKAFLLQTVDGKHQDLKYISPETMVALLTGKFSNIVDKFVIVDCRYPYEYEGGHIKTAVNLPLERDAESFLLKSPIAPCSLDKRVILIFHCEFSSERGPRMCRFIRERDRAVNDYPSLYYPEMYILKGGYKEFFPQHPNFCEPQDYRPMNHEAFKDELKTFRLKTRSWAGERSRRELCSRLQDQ
Briefly: Inhibition of MBP-fused recombinant wild type CDC25B3 using fluorescein 3,6 diphosphate as substrate measured for 30 mins in presence of 1 mM dithiothreitol.

Test [2] concerns the target T2, Tyrosine-protein phosphatase non-receptor type 1 (Homo sapiens) (UniProt P18031).
T2 sequence (whole entry): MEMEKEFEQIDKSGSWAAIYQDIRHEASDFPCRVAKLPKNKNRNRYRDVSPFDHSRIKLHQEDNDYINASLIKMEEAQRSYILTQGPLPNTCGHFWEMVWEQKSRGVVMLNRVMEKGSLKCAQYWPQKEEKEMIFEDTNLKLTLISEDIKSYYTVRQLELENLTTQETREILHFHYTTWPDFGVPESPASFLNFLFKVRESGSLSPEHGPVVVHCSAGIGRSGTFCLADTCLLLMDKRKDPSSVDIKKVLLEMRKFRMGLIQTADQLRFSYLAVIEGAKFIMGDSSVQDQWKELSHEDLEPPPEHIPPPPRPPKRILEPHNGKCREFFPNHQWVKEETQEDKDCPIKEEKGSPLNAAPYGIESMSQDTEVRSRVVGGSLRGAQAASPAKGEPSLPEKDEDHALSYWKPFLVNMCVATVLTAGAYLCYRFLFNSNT
Briefly: Inhibition of PTP1B using fluorescein 3,6 diphosphate as substrate at 100 uM measured for 1 hr in presence of 1 mM dithiothreitol.

In test [3] the target is T3, Dual specificity protein phosphatase 3 (Homo sapiens, UniProt P51452). Briefly: Inhibition of VHR using fluorescein 3,6 diphosphate as substrate at 100 uM measured for 1 hr in presence of 1 mM dithiothreitol.
Target sequence in this assay (P51452 whole entry, looked up): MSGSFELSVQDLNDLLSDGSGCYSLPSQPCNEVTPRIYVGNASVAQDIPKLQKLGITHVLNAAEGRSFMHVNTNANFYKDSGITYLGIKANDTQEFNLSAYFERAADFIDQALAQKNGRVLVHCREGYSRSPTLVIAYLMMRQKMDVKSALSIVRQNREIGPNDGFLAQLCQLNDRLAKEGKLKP
The target in test [4] is T3, Dual specificity protein phosphatase 3. Briefly: Inhibition of VHR using fluorescein 3,6 diphosphate as substrate measured for 1 hr in presence of 1 mM dithiothreitol.
Target sequence in this assay (P51452 whole entry): as the sequence (P51452 whole entry, looked up) above
Test [5] deals with T4, Tyrosine-protein phosphatase non-receptor type 1 (Homo sapiens, UniProt P18031).
T4 sequence (P18031 whole entry): T2 sequence (whole entry)
Briefly: Inhibition of PTP1B using fluorescein 3,6 diphosphate as substrate measured for 1 hr in presence of 1 mM dithiothreitol.

For test [6], the target named is T2, Tyrosine-protein phosphatase non-receptor type 1 (Homo sapiens). Briefly: Inhibition of PTP1B using fluorescein 3,6 diphosphate as substrate at 50 uM measured for 1 hr in presence of 1 mM dithiothreitol.
Test [7] addresses T1, M-phase inducer phosphatase 2. Briefly: Inhibition of MBP-fused recombinant wild type CDC25B3 using fluorescein 3,6 diphosphate as substrate measured for 30 mins in presence of 20 mM dithiothreitol.
For test [8] the target is unchanged. Briefly: Inhibition of MBP-fused recombinant wild type CDC25B3 using fluorescein 3,6 diphosphate as substrate measured for 30 mins in presence of 10 mM dithiothreitol.
Test [9] deals with T3, Dual specificity protein phosphatase 3. Kind of test: Inhibition of VHR using fluorescein 3,6 diphosphate as substrate at 10 uM measured for 1 hr in presence of 1 mM dithiothreitol.
Target sequence in this assay (P51452 whole entry, looked up): as above
The target of test [10] is T5, M-phase inducer phosphatase 2 (Homo sapiens) (UniProt P30305).
T5 sequence (whole entry): T1 sequence (P30305 whole entry)
Kind of test: Inhibition of MBP-fused recombinant wild type CDC25B3 using fluorescein 3,6 diphosphate as substrate at 100 uM measured for 30 mins in presence of 1 mM dithiothreitol.

The target in test [11] is T2, Tyrosine-protein phosphatase non-receptor type 1 (Homo sapiens). Briefly: Inhibition of PTP1B using fluorescein 3,6 diphosphate as substrate at 10 uM measured for 1 hr in presence of 1 mM dithiothreitol.

What is called IC50 is the concentration at which inhibition is half-maximal. One may read the inhibition as how much of the control response was suppressed.

As for `O=C1N=C(NCCCCCCCNC2=NC(=O)/C(=C/C=C/c3ccccc3)S2)S/C1=C\C=C\c1ccccc1`, the IC50 in test [1] was found to be 7.7 µM. The figures for the inhibition in test [2] and in [3] were 51% and 34%, respectively.

In the case of `O=C1N=C(NCCCCCNC2=NC(=O)/C(=C/c3ccc(O)cc3)S2)S/C1=C\c1ccc(O)cc1`, the figures for the IC50 in test [4], in [5] and in test [1] were 75.8 µM, 20.6 µM and 13.9 µM, respectively.

As to `O=C1N=C(NCCCCCCCNC2=NC(=O)/C(=C/c3ccc(O)c(O)c3)S2)S/C1=C\c1ccc(O)c(O)c1`, the IC50 in test [5] is 23.4 µM.

For the compound `O=C1N=C(NCCCCCCCNC2=NC(=O)/C(=C/c3ccc(-c4ccccc4)o3)S2)S/C1=C\c1ccc(-c2ccccc2)o1`, the inhibition in test [2] was 50%.

As to `O=C1N=C(NCCCn2cc(CNC3=NC(=O)/C(=C/c4ccc(O)cc4)S3)nn2)S/C1=C\c1ccc(O)cc1`, the inhibition in test [6] was found to be 25%.

For the compound `O=C1N=C(NCCCCCCCNC2=NC(=O)/C(=C/c3ccc4c(c3)OCO4)S2)S/C1=C\c1ccc2c(c1)OCO2`, the IC50 in test [1] was 13.8 µM. Also, the inhibition turned out to be 30% in test [2] and 27% in test [3].

For the compound `O=C1N=C(NCCN2CCN(CCNC3=NC(=O)/C(=C/c4ccc(O)cc4)S3)CC2)S/C1=C\c1ccc(O)cc1`, the IC50 in [5] was 46 µM.

On to `O=C1N=C(NCCCCCCNC2=NC(=O)/C(=C/c3ccc(O)cc3)S2)S/C1=C\c1ccc(O)cc1`, for which the IC50 in [5] was 12.4 µM.

For `CCCCNC1=NC(=O)/C(=C/c2ccc(O)cc2)S1`, the inhibition in test [2] came to 35%.

Consider `O=C1N=C(NCCN2CCN(CCNC3=NC(=O)/C(=C/c4ccc(O)cc4)S3)CC2)S/C1=C\C=C\c1ccco1`, for which the inhibition in test [2] is 39%.

Regarding `O=C1N=C(NCCCn2cc(CCNC3=NC(=O)/C(=C/c4ccc(O)cc4)S3)nn2)S/C1=C\c1ccc(O)cc1`, the results for the inhibition in [6] and in test [3] were 20% and 55%, respectively. The IC50 in [1] was 20.6 µM.

Turning to `O=C1N=C(NCCN2CCN(CCNC3=NC(=O)/C(=C/c4ccc5[nH]ncc5c4)S3)CC2)S/C1=C\c1ccc(O)cc1`, in test [2], the inhibition is 18%.

Take `O=C1N=C(NCCN2CCN(CCNC3=NC(=O)/C(=C/c4ccc(O)cc4)S3)CC2)S/C1=C\C=C\c1ccccc1`: in test [2], the inhibition stood at 13%.

With `O=C1N=C(NCCCCCCCNC2=NC(=O)/C(=C/c3cc(Br)c(O)c(Br)c3)S2)S/C1=C\c1cc(Br)c(O)c(Br)c1`, the 50% inhibitory concentration (IC50) in test [7] was determined as 3.2 µM; in test [8], 3.1 µM; in test [5], 24.2 µM; in test [1], 1.38 µM. The figures for the inhibition in [9] and in [3] were 31% and 100%, respectively.

In the case of `O=C1N=C(NCC2CCCC(CNC3=NC(=O)/C(=C/c4ccc(O)cc4)S3)C2)S/C1=C\c1ccc(O)cc1` (stereo not drawn), the IC50 in test [5] was 9 µM; in test [1] it was 6.6 µM. Further, the inhibition in [3] stood at 30%.

For the compound `CCCCCNC1=NC(=O)/C(=C/c2ccc(O)cc2)S1`, in [2], the inhibition was 35%.

Turning to `O=C1N=C(NCCCCCCCCCNC2=NC(=O)/C(=C/c3ccc(O)cc3)S2)S/C1=C\c1ccc(O)cc1`, the IC50 in test [5] stood at 6.2 µM.

On to `O=C1N=C(NCCCCCCCCNC2=NC(=O)/C(=C/c3ccc(O)cc3)S2)S/C1=C\c1ccc(O)cc1`, for which the IC50 in [5] stood at 11.6 µM; in test [1], 3.9 µM. Also, the inhibition in test [3] turned out to be 29%.

As for `O=C1N=C(NCCN2CCN(CCNC3=NC(=O)/C(=C/c4ccc5c(c4)OCO5)S3)CC2)S/C1=C\c1ccc(O)cc1`, the IC50 in [1] stood at 4.4 µM. Besides, the inhibition turned out to be 19% in test [2] and 29% in test [3].

For `O=C1N=C(NCc2ccccc2)S/C1=C\c1ccc(O)cc1`, the inhibition in test [2] came to 46%; in test [3], 8%; in test [10] it was 45%.

Regarding `O=C1N=C(NCCCCCCCNC2=NC(=O)/C(=C/c3ccccc3)S2)S/C1=C\c1ccccc1`, the IC50 in [5] was found to be 41.3 µM.

In the case of `CC1=CC(=O)c2ccccc2C1=O` [MENADIONE], the IC50 in test [1] worked out at 2.2 µM.

For `O=C(O)/C=C/c1ccc(/C=C2\SC(NCCCCCCCNC3=NC(=O)/C(=C/c4ccc(/C=C/C(=O)O)cc4)S3)=NC2=O)cc1`, in [5], the IC50 is 26.9 µM.

Regarding `O=C1N=C(NCCCCCCCNC2=NC(=O)/C(=C/c3ccc(O)cc3)S2)S/C1=C\c1ccc(O)cc1`, the IC50 in test [5] is 30.6 µM.

Consider `CNC1=NC(=O)/C(=C/c2ccc(O)cc2)S1`, for which, in test [2], the inhibition came out at 32%.

Consider `O=C1N=C(NCCN2CCN(CCNC3=NC(=O)/C(=C/c4cc(Br)c(O)c(Br)c4)S3)CC2)S/C1=C\c1ccc(O)cc1`, for which the inhibition is 33% in test [11] and 100% in test [2].

On to `O=C1N=C(NCCCCNC2=NC(=O)/C(=C/c3ccc(O)cc3)S2)S/C1=C\c1ccc(O)cc1`, for which the IC50 in test [5] amounted to 28.4 µM.

On to `COc1cc(/C=C2\SC(NCCCCCCCNC3=NC(=O)/C(=C/c4cc(OC)c(O)c(OC)c4)S3)=NC2=O)cc(OC)c1O`, for which the inhibition in [2] was 2%.

For `O=C1N=C(NCc2cccc(CNC3=NC(=O)/C(=C/c4ccc(O)cc4)S3)c2)S/C1=C\c1ccc(O)cc1`, the IC50 in test [5] is 9.1 µM.

For `O=C1N=C(NCCCc2cn(CCNC3=NC(=O)/C(=C/c4ccc(O)cc4)S3)nn2)S/C1=C\c1ccc(O)cc1`, in test [6], the inhibition turned out to be 35%.

With `O=C1N=C(NCCCc2cn(CCCNC3=NC(=O)/C(=C/c4ccc(O)cc4)S3)nn2)S/C1=C\c1ccc(O)cc1`, in test [6], the inhibition worked out at 50%.

The record behind these values is ChEMBL document CHEMBL2203275, “Design and synthesis of novel bis-thiazolone derivatives as micromolar CDC25 phosphatase inhibitors: effect of dimerisation on phosphatase inhibition” (Bioorg Med Chem Lett, 2012).
